Patent EP3958860B1, “COMPOUNDS EXHIBITING ANTI-TUBERCULOSIS ACTIVITY” (priority 2019, dated 2021)
In brackets after ≈: the same amount, converted by molar mass. Like-named read-outs stand apart in the source and are kept apart here.

Legend:
[1] = system: Mycobacterium tuberculosis H37Rv; experiment: MIC determination by MABA (Microplate Alamar Blue Assay); format: cell-based; details: for MIC: Mycobacterium tuberculosis, H37RV
Method: Following this, to determine the actual minimum inhibitory concentration in the second phase, both of the compounds were retested to the lowest concentration of Mycobacterium tuberculosis H37Rv with the technique of MABA (Microplate Alamar Blue Assay) and MIC value for the 1st compound was determined <0.03 µg/ml while this value was determined <0.05 µg/ml for the second compound. The result of Rifampicin subjected to the assay under the same conditions was determined as 0.25 µg/ml.

Mycobacterium avium = experiment: MIC on Mycobacterium avium with BACTEC; format: cell-based; details: for MIC: Mycobacterium avium, BACTEC
[2] = system: Mycobacterium tuberculosis H37Rv (ATCC27294); format: cell-based
[3] = In vivo animal toxicity tests (maximum tolerable dose)
[4] = format: physicochemical
Method: To ensure that Compound 2 is dissolved in water, in the assays carried out with solubility enhancing cyclodextrin molecules, different cyclodextrins [hydroxypropyl beta-cyclodextrin (HP-β-CD), sulfobutyl ether beta-cyclodextrin (SBE-β-CD)], different methods [kneading, evaporation, lyophilization], different solvents (dimethyl sulfoxide, methanol, ethanol) were studied at the molar ratio of 1: 1 compound: cyclodextrin.

[5] = format: physicochemical; remark: listed apart in the source
Method: In the assays carried out with the solubility enhancing Polysorbate 80 (Tween 80) in order to ensure water solubility of Compound 2, firstly solubility of the compound was determined in an aqueous solution prepared with a mass ratio of 1:6 (compound: Tween 80) and then the same mass ratio was studied with different solvents (ethanol, methanol) and different drying methods (evaporation, evaporation+lyophilization). In light of the results of solubility obtained and presented below Table 2, it has determined that the solution of the compound that was prepared with the Tween 80 in methanol medium had the highest solubility rate after evaporation.
Details of the method where high solubility was determined with Polysorbate 80 (Tween 80) are presented below: After the substances at the mass ratio of 1:6 (compound: Tween 80) were dissolved in 7 ml methanol, they were evaporated in a rotating evaporator at 175 RPM, at a temperature of 40°C and a vacuum of […]. The thin film obtained was firstly blended with vortex adding 3 ml water, and then was left to rest for 15 minutes in an ultrasonic bath. The mixture obtained was filtered out with a plastic filter having a pore diameter of 0.2 µm and afterward solubility ratio of the mixture was determined with HPLC.

[6] = first value of the cell (outside parentheses), MABA, read-out: MIC H37Rv
[7] = value printed in parentheses after the bound <12.5, read-out: MIC H37Rv (µg/ml), value in parentheses
[8] = read-out: MIC H37Rv (µg/ml), value in parentheses
[9] = first value of the cell (outside parentheses), MABA

Structure (SMILES) | MIC [1, 6] | MIC [1, 7] | MIC (Mycobacterium avium) | other results
CC(=NNc1nc(-c2ccccc2O)cs1)c1ccc2c(c1)CCC2 [Compound 4, 2-[2-(2-(1-(2,3-Dihydro-1H-inden-5-yl)ethylidene)hydrazinyl)thiazol-4-yl]phenol] | < 12.5 µg/mL | 0.2 µg/mL (≈ 0.572 µM) | 0.78 µg/mL (≈ 2.23 µM) | –
C/C(=N\Nc1nc(-c2ccc([N+](=O)[O-])cc2)cs1)c1ccc2c(c1)CCC2 [Compound 10] | – | – | 3.13 µg/mL (≈ 8.27 µM) | Primary screening % inhibition [2]: 93%; MIC ([1]; read-out: MIC H37Rv (µg/ml)): < 12.5 µg/mL; MIC [1, 8]: 1.56 µg/mL (≈ 4.12 µM)
CC(=NNC(N)=S)c1ccc2c(c1)CCC2 [Compound 1, 2-[1-(2,3-dihydro-1H-inden-5-yl)ethylidene]hydrazinecarbothioamide] | < 0.03 µg/mL | – | – | MIC H37Rv [1, 9]: <0.03 µg/mL; maximum tolerable dose [3]: 1000 mg/kg
CC(=NNc1nc(-c2ccccc2)cs1)c1ccc2c(c1)CCC2 [Compound 11, 2-[2-(1-(2,3-Dihydro-1H-inden-5-yl)ethylidene)hydrazinyl]-4-phenylthiazole] | – | – | 12.5 µg/mL (≈ 37.5 µM) | MIC ([1]; read-out: MIC H37Rv (µg/ml)): < 12.5 µg/mL; MIC [1, 8]: 3.13 µg/mL (≈ 9.39 µM)
CC(=NNc1nc(-c2ccc(C)cc2O)cs1)c1ccc2c(c1)CCC2 [Compound 9, 2-[2-(2-(1-(2,3-Dihydro-1H-inden-5-yl)ethylidene)hydrazinyl)thiazol-4-yl]-5-methylphenol] | < 12.5 µg/mL | 0.05 µg/mL (≈ 0.138 µM) | 0.1 µg/mL (≈ 0.275 µM) | –
C/C(=N\Nc1nc(-c2ccc(C)cc2)cs1)c1ccc2c(c1)CCC2 [Compound 7] | – | – | 0.2 µg/mL (≈ 0.576 µM) | Primary screening % inhibition [2]: 94%; MIC ([1]; read-out: MIC H37Rv (µg/ml)): < 12.5 µg/mL; MIC [1, 8]: 0.2 µg/mL (≈ 0.576 µM)
CC(=NNc1nc(-c2ccc(Br)cc2)cs1)c1ccc2c(c1)CCC2 [Compound 6, 4-(4-Bromophenyl)-2-[2-(1-(2,3-dihydro-1H-inden-5-yl)ethylidene)hydrazinyl] thiazole] | < 12.5 µg/mL | 0.39 µg/mL (≈ 0.946 µM) | 1.56 µg/mL (≈ 3.78 µM) | –
COc1ccc(-c2csc(NN=C(C)c3ccc4c(c3)CCC4)n2)c(O)c1 [Compound 8, 2-[2-(2-(1-(2,3-Dihydro-1H-inden-5-yl)ethylidene)hydrazinyl)thiazol-4-yl]-5-methoxyphenol] | < 12.5 µg/mL | – | – | –
CO[C@H]1/C=C/O[C@@]2(C)Oc3c(C)c(O)c4c(O)c(c(/C=N/N5CCN(C)CC5)c(O)c4c3C2=O)NC(=O)/C(C)=C\C=C\[C@H](C)[C@H](O)[C@@H](C)[C@@H](O)[C@@H](C)[C@H](OC(C)=O)[C@@H]1C [Rifampicin, reference compound] | 0.25 µg/mL (≈ 0.304 µM) | – | – | –
CC(=NNc1nc(-c2ccc(Cl)cc2)cs1)c1ccc2c(c1)CCC2 [Compound 3, 4-(4-Chlorophenyl)-2-[2-(1-(2,3-dihydro-1H-inden-5yl)ethylidene)hydrazinyl] thiazole] | < 12.5 µg/mL | 0.39 µg/mL (≈ 1.06 µM) | 0.78 µg/mL (≈ 2.12 µM) | –
CC(=NNc1nc(-c2cc(Cl)ccc2O)cs1)c1ccc2c(c1)CCC2 [Compound 5, 4-Chloro-2-[2-(2-(1-(2,3-dihydro-1H-inden-5-yl)ethylidene)hydrazinyl)thiazol-4-yl]phenol] | < 12.5 µg/mL | – | – | –
COc1ccc(O)c(-c2csc(NN=C(C)c3ccc4c(c3)CCC4)n2)c1 [Compound 2, 2-[2-(2-(1-(2,3-dihydro-1H-inden-5-yl)ethylidene)hydrazinyl)thiazole-4-yl]-4-methoxy phenol] | < 0.05 µg/mL | – | 0.39 µg/mL (≈ 1.03 µM) | MIC H37Rv [1, 9]: <0.05 µg/mL; activity on Mycobacterium avium (Mycobacterium avium): exhibited activity; increase in solubility [4]: any significant increase in solubility was not observed; dissolved in water at the ratio of ([4]; HP-β-CD, molar ratio 1:1, evaporation method within ethanol): 0.59 µg/mL; Solubility ratio in the aqueous solution [5]: Solubility ratio in the aqueous solution prepared with the mass ratio of 1:6 (compound: Tween 80) 42,44 µg/ml; The ratio of water solubility [5]: 58,80 µg/ml; The ratio of water solubility ([5]; 15 min): 70,05 µg/ml
